Experimental data: ChEMBL document CHEMBL5506059, “Cyanomethylquinolones as a New Class of Potential Multitargeting Broad-Spectrum Antibacterial Agents” (J Med Chem, 2024)
≈ marks a conversion by molar mass, not a printed value. Calls of active or inactive are those of the source. The rule behind the calls is not given here.

Experiments:
[1] = tested on: Pseudomonas aeruginosa; test: Antibacterial activity against Pseudomonas aeruginosa ATCC 27853 assessed as inhibition of bacterial growth incubated for 24 hrs; format: functional
[2] = tested on: Pseudomonas aeruginosa; test: Antibacterial activity against Pseudomonas aeruginosa clinical isolate assessed as inhibition of bacterial growth incubated for 24 hrs; format: functional
[3] = tested on: Staphylococcus aureus; test: Antibacterial activity against methicillin resistant Staphylococcus aureus clinical isolate assessed as inhibition of bacterial growth incubated for 24 hrs; format: functional
[4] = tested on: Staphylococcus aureus; test: Antibacterial activity against Staphylococcus aureus ATCC 29213 assessed as inhibition of bacterial growth incubated for 24 hrs; format: functional
[5] = tested on: Staphylococcus aureus; test: Resistance development in ciprofloxacin-treated methicillin resistant Staphylococcus aureus assessed as increase in MIC measured after 15th generation; format: functional, organism-based
[6] = tested on: Staphylococcus aureus; test: Antibacterial activity against Staphylococcus aureus ATCC 25923 assessed as inhibition of bacterial growth incubated for 24 hrs; format: functional
[7] = tested on: Staphylococcus epidermidis; test: Antibacterial activity against Staphylococcus epidermidis ATCC 12228 assessed as inhibition of bacterial growth incubated for 24 hrs; format: functional
[8] = tested on: Acinetobacter baumannii; test: Antibacterial activity against Acinetobacter baumannii clinical isolate assessed as inhibition of bacterial growth incubated for 24 hrs; format: functional
[9] = tested on: Staphylococcus aureus; test: Antibacterial activity against Staphylococcus aureus clinical isolate assessed as inhibition of bacterial growth incubated for 24 hrs; format: functional
[10] = tested on: Staphylococcus aureus; test: Antibacterial activity against Staphylococcus aureus CMCC(B)26001 assessed as inhibition of bacterial growth incubated for 24 hrs; format: functional
[11] = tested on: Klebsiella pneumoniae; test: Antibacterial activity against Klebsiella pneumoniae clinical isolate assessed as inhibition of bacterial growth incubated for 24 hrs; format: functional
[12] = tested on: Staphylococcus aureus; test: Antibacterial activity against Staphylococcus aureus ATCC 12600 assessed as inhibition of bacterial growth incubated for 24 hrs; format: functional
[13] = tested on: Staphylococcus aureus; test: Antibacterial activity against Staphylococcus aureus CMCC(B)26003 assessed as inhibition of bacterial growth incubated for 24 hrs; format: functional
[14] = tested on: Enterococcus faecalis; test: Antibacterial activity against Enterococcus faecalis clinical isolate assessed as inhibition of bacterial growth incubated for 24 hrs; format: functional
[15] = tested on: Escherichia coli; test: Antibacterial activity against Escherichia coli clinical isolate assessed as inhibition of bacterial growth incubated for 24 hrs; format: functional
[16] = tested on: Pseudomonas aeruginosa; test: Resistance development in ciprofloxacin-treated Pseudomonas aeruginosa ATCC 27853 assessed as increase in MIC measured after 15th generation; format: functional, organism-based
[17] = tested on: Escherichia coli; test: Antibacterial activity against Escherichia coli ATCC 25922 assessed as inhibition of bacterial growth incubated for 24 hrs; format: functional
[18] = tested on: Enterococcus faecalis; test: Antibacterial activity against vancomycin-resistant Enterococcus faecalis clinical isolate p1-2007226001 assessed as inhibition of bacterial growth incubated for 24 hrs; format: functional
[19] = tested on: Enterococcus faecium; test: Antibacterial activity against Enterococcus faecium ATCC 19434 assessed as inhibition of bacterial growth incubated for 24 hrs; format: functional
[20] = tested on: Staphylococcus aureus; test: Antibacterial activity against Staphylococcus aureus ATCC 6538 assessed as inhibition of bacterial growth incubated for 24 hrs; format: functional
[21] = tested on: Enterococcus faecalis; test: Antibacterial activity against vancomycin-resistant Enterococcus faecalis clinical isolate p1-2007225053 assessed as inhibition of bacterial growth incubated for 24 hrs; format: functional
[22] = tested on: Pseudomonas aeruginosa; test: Resistance development in ciprofloxacin-treated Pseudomonas aeruginosa assessed as increase in MIC measured after 15th generation; format: functional, organism-based
[23] = tested on: Streptococcus pyogenes; test: Antibacterial activity against Streptococcus pyogenes ATCC 19615 assessed as inhibition of bacterial growth incubated for 24 hrs; format: functional
[24] = tested on: Staphylococcus aureus; test: Antibacterial activity against methicillin-resistant Staphylococcus aureus ATCC 43300 assessed as inhibition of bacterial growth incubated for 24 hrs; format: functional
[25] = tested on: Streptococcus pneumoniae; test: Antibacterial activity against Streptococcus pneumoniae ATCC 6305 assessed as inhibition of bacterial growth incubated for 24 hrs; format: functional
[26] = tested on: Staphylococcus aureus; test: Resistance development in ciprofloxacin-treated Staphylococcus aureus ATCC 6538 assessed as increase in MIC measured after 15th generation; format: functional, organism-based
[27] = tested on: Erythrocyte; test: Hemolytic activity in human Red blood cells assessed as concentration required for 5% hemolysis measured after 1.5 hrs by absorbance based assay; format: toxicity, cell-based

Row | Structure (SMILES) | MIC [1] | MIC [2] | MIC [3] | MIC [4] | MIC [6] | MIC [7] | MIC [8] | MIC [9] | MIC [10] | MIC [11] | MIC [12] | MIC [13] | MIC [14] | MIC [15] | MIC [17] | MIC [18] | MIC [19] | MIC [20] | MIC [21] | MIC [23] | also measured
1 | CCn1cc(C(=O)O)c(=O)c2cc(F)c(N3CCNCC3)cc21 [NORFLOXACIN] | 8 mg/L (≈ 25.1 µM) | 8 mg/L (≈ 25.1 µM) | 8 mg/L (≈ 25.1 µM) | 4 mg/L (≈ 12.5 µM) | 8 mg/L (≈ 25.1 µM) | 1 mg/L (≈ 3.13 µM) | 2 mg/L (≈ 6.26 µM) | 8 mg/L (≈ 25.1 µM) | 0.25 mg/L (≈ 0.783 µM) | 8 mg/L (≈ 25.1 µM) | 2 mg/L (≈ 6.26 µM) | 0.5 mg/L (≈ 1.57 µM) | 8 mg/L (≈ 25.1 µM) | 4 mg/L (≈ 12.5 µM) | 4 mg/L (≈ 12.5 µM) | 8 mg/L (≈ 25.1 µM) | 4 mg/L (≈ 12.5 µM) | 1 mg/L (≈ 3.13 µM) | 1 mg/L (≈ 3.13 µM) | 32 mg/L (≈ 100 µM) | Activity [5]: Active; Activity [16]: Active; Activity [22]: Active; MIC [24]: 4 mg/L (≈ 12.5 µM); MIC [25]: 0.5 mg/L (≈ 1.57 µM); Activity [26]: Active
2 | CCCCCCCCn1cc(C(=O)O)c(=O)c2cc(F)c(CC#N)cc21 | 256 mg/L (≈ 714 µM) | 2 mg/L (≈ 5.58 µM) | 256 mg/L (≈ 714 µM) | 256 mg/L (≈ 714 µM) | 1 mg/L (≈ 2.79 µM) | 128 mg/L (≈ 357 µM) | 256 mg/L (≈ 714 µM) | 256 mg/L (≈ 714 µM) | 2 mg/L (≈ 5.58 µM) | 256 mg/L (≈ 714 µM) | 32 mg/L (≈ 89.3 µM) | 2 mg/L (≈ 5.58 µM) | 256 mg/L (≈ 714 µM) | 0.5 mg/L (≈ 1.4 µM) | 256 mg/L (≈ 714 µM) | 128 mg/L (≈ 357 µM) | 128 mg/L (≈ 357 µM) | 64 mg/L (≈ 179 µM) | 256 mg/L (≈ 714 µM) | 2 mg/L (≈ 5.58 µM) | HC5 [27]: 258 µg/mL; MIC [24]: 64 mg/L (≈ 179 µM); MIC [25]: 64 mg/L (≈ 179 µM)
3 | N#CCc1cc2c(cc1F)c(=O)c(C(=O)O)cn2Cc1ccc(C(F)(F)F)cc1 | 8 mg/L (≈ 19.8 µM) | 16 mg/L (≈ 39.6 µM) | 16 mg/L (≈ 39.6 µM) | 4 mg/L (≈ 9.89 µM) | 2 mg/L (≈ 4.95 µM) |  | 64 mg/L (≈ 158 µM) | 8 mg/L (≈ 19.8 µM) |  | 64 mg/L (≈ 158 µM) |  |  | 0.5 mg/L (≈ 1.24 µM) | 256 mg/L (≈ 633 µM) | 8 mg/L (≈ 19.8 µM) |  |  |  |  |  | 
4 | N#CCc1cc2c(cc1F)c(=O)c(C(=O)O)cn2Cc1ccccc1 | 1 mg/L (≈ 2.97 µM) | 0.25 mg/L (≈ 0.743 µM) | 8 mg/L (≈ 23.8 µM) | 0.5 mg/L (≈ 1.49 µM) | 0.25 mg/L (≈ 0.743 µM) |  | 256 mg/L (≈ 761 µM) | 256 mg/L (≈ 761 µM) |  | 0.5 mg/L (≈ 1.49 µM) |  |  | 4 mg/L (≈ 11.9 µM) | 2 mg/L (≈ 5.95 µM) | 0.25 mg/L (≈ 0.743 µM) |  |  |  |  |  | 
5 | N#CCc1cc2c(cc1F)c(=O)c(C(=O)O)cn2CC1CCC1 | 128 mg/L (≈ 407 µM) | 256 mg/L (≈ 814 µM) | 128 mg/L (≈ 407 µM) | 256 mg/L (≈ 814 µM) | 0.5 mg/L (≈ 1.59 µM) |  | 256 mg/L (≈ 814 µM) | 64 mg/L (≈ 204 µM) |  | 256 mg/L (≈ 814 µM) |  |  | 32 mg/L (≈ 102 µM) | 128 mg/L (≈ 407 µM) | 128 mg/L (≈ 407 µM) |  |  |  |  |  | 
